# Experimental data taken from article PMC5384777, “Three new C-27-carboxylated-lupane-triterpenoid derivatives from Potentilla discolor Bunge and their in vitro antitumor activities” (PLoS ONE, 2017).
# “And” between values parts separate entries of the source, which are not always exact repeats. Equal values may be shown once. Read-outs that look alike come from different tables or passages of the source.
# Columns and labels:
# in vitro = format: cell-based; conditions: human
# Experimental: (§1) The cytotoxic effects of Compounds 1–3 were estimated in vitro against HepG-2, MCF-7 and T-84 tumor cell lines by Cell Counting Kit-8 assay. Briefly, the cells were seeded into 96-well plates in triplicate at an initial number of 5,000 cells per well and cultured at 37°C, 5% CO2 for 24h, then treated with 0, 15, 20, 25, 30 μM of samples for another 24h. Ten microliters of the kit reagent was added to each well, and 2 h after all plates were scanned by a microplate reader (Thermo Fisher Scientific) at 450 nm. Cell cytotoxicity was calculated on the basis of absorbency.
# HepG-2 cells [1] = assay: AO/EB staining; format: cell-based, human; conditions: 15 and 30 μM, 24 h
# Experimental: HepG-2 cells were seeded on a sterile cover slip in 6-well tissue culture plates at a concentration of 5 ×10^4 cell/mL in a volume of 2 mL. Following incubation, the medium was removed and replaced with fresh medium plus 10% fetal bovine serum and supplemented with concentrations of Compound 1 for 24 h. After the treatment period, the cover slip with monolayer cells was inverted on a grass slide with 10 μL of AO/EB stain ([…]). Fluorescence was read on a Nikon ECLIPSETE2000-S fluorescence microscope.
# caspase-9 = assay: Western blot, caspase-9; format: cell-based, human; conditions: HepG-2, 15 and 30 μM, 24 h
# Experimental: (§2) HepG-2 cells were collected after treatments with Compound 1 (0, 15 and 30 μM) for 24 h and then lysed in ice-cold RIPA buffer (1×PBS, 1% NP-40, 0.5% sodium deoxycholate and 0.1% SDS) which containing 100 μg/mL PMSF, 5 μg/mL Aprotinin, 5 μg/mL Leupeptin, 5 μg/mL Pepstatin and 100 μg/mL NaF. After centrifugation at 12,000 rpm for 10 min, the protein in the supernatant was quantified by the Bradford method using Multimode varioscan instrument (Thermo Fischer Scientifics). 30 μg protein per lane was applied in 12% SDS polyacrylamide gel. After electrophoresis, the protein was transferred to a polyvinylidine difluoride (PVDF) membrane (Amersham Biosciences). The membrane was blocked in TBST containing 5% blocking powder (Santacruz) at room temperature for 2 h. The membrane was washed with TBST for 5 min, and primary antibody (Bax, Bcl-2, cytochrome c, caspase-9, -3) was added and incubated at 4°C overnight (O/N). After three washes in TBST, the membrane was cultivated with corresponding horseradish peroxidase-labeled secondary antibody (1:20000) (Santa Cruz) at room temperature for 1 h. Membranes were rinsed with TBST for three times, 15 min each, and the protein blots were visualized with chemiluminescence reagent (Thermo Fischer Scientifics Ltd.). The X-ray films were developed with developer and fixed with fixer solution.
# HepG-2 cells [2] = assay: Annexin V-FITC/propidium iodide apoptosis analysis; format: cell-based, human; conditions: 24 h
# Experimental: The method for apoptosis analysis referred to the literature. Apoptosis was discriminated with the annexin V-FITC/propidium iodide test. Cells were seeded at 3 × 10^5/well in 10% FBS-DMEM into 6-well plates, and treated with Compound 1 with various concentrations. The cells were washed twice with cold Phosphate Buffered Saline (PBS) and then resuspended in 1 × Binding Buffer (0.1 M Hepes/NaOH (pH 7.4), 1.4 M NaCl, 25 mM CaCl2) at a concentration of 1 × 10^6 cells/mL. 100 μL of the solution (1 × 10^5 cells) was transferred to a 5 mL culture tube, and 5 μL of FITC Annexin V (BD, Pharmingen) and 5 μL of propidium iodide (PI) were added to each tube. The cells were gently vortexed and incubated at 25°C for 15 min in the dark. Then 200 μL of PBS was added to each tube. Analysis was performed with the system software (Cell Quest; BD Biosciences). The percentage of cells positive for PI and/or Annexin V-FITC was reported inside the quadrants. Lower left quadrant, viable cells (annexin V-/PI-); lower right quadrant, early apoptotic cells (annexin V+/PI-); upper right quadrant, late apoptotic cells (annexin V+/PI+); upper left quadrant, necrotic cells (annexin V-/PI+).
# Bcl-2 = assay: Western blot, Bcl-2; format: cell-based, human; conditions: HepG-2, 15 and 30 μM, 24 h, compared with control
# Experimental: as §2
# Bax = assay: Western blot, Bax; format: cell-based, human; conditions: HepG-2, 15 and 30 μM, 24 h, compared with control
# Experimental: as §2
# T-84 = assay: CCK-8 cytotoxicity assay, T-84; format: cell-based; conditions: Homo sapiens, read-out: Cytotoxicity (IC50) T-84
# Experimental: as §1
# HepG-2 cells [3] = assay: Hoechst 33258 staining; format: cell-based, human; conditions: 15 and 30 μM, 24 h
# Experimental: HepG-2 cells grown on a sterile cover slip in 6-well plates were treated with Compound 1 for 24 h. The culture medium containing Compound was removed, and the cells were fixed in 4% paraformaldehyde for 10 min. After two PBS washes, the cells were stained with 0.5 mL of Hoechst 33258 (Beyotime, Haimen, China) for 5 min and again two PBS washes. The stained nuclei were viewed using a Nikon ECLIPSETE2000-S fluorescence microscope (OLYMPUS Co., Japan) under 350 nm excitation and 460 nm emissions.
# cytochrome c = assay: Western blot, cytochrome c; format: cell-based, human; conditions: HepG-2, 0, 15 and 30 μM, 24 h
# Experimental: as §2
# MCF-7 = assay: CCK-8 cytotoxicity assay, MCF-7; format: cell-based; conditions: Homo sapiens, read-out: Cytotoxicity (IC50) MCF-7
# Experimental: as §1
# HepG-2 cells [4] = assay: Mitochondrial membrane potential (JC-1) staining; format: cell-based, human; conditions: 15 μM, 24 h
# HepG-2 cells [5] = assay: Intracellular ROS assay (DCFH-DA); format: cell-based, human; conditions: 24 h, control 10.6%
# Experimental: HepG-2 cells were seeded into 6-well plates for 24 h and subjected to various treatments. Then, the cells were cultured in a […] medium solution containing […] DCFH-DA (Beyotime, Haimen, China) at 37°C for 30 min in dark, and then with 3 times PBS washes. Cellular fluorescence was quantified under Nikon ECLIPSETE2000-S fluorescence microscope at 485 nm excitation and 538 nm emission.
# HepG-2 = assay: CCK-8 cytotoxicity assay, HepG-2; format: cell-based, human; conditions: for IC50: Homo sapiens, read-out: Cytotoxicity (IC50) HepG-2
# Experimental: as §1
# caspase-3 = assay: Western blot, caspase-3; format: cell-based, human; conditions: HepG-2, 15 and 30 μM, 24 h
# Experimental: as §2
structure (smiles),measurement,setting,value
"CC(C=O)C1CCC2(C)CCC3(C(=O)O)C(CCC4C5(C)CCC(O)C(C)(C)C5CCC43C)C12 (stereo not drawn) [Compound 1, 3α-hydroxy-19α-hydrogen-29-aldehyde-27-lupanoic acid]","viability at 24 h, 35 µM",in vitro,> 90%
same,apoptosis by AO/EB staining,HepG-2 cells [1],able to induce apoptosis
same,cleavage of caspase-9,caspase-9,significantly induced cleavage
same,"early apoptosis rate (annexin V+/PI-, LR)",HepG-2 cells [2]; 15 μM,6.96%
same,"late apoptosis rate (annexin V+/PI+, UR)",HepG-2 cells [2]; 15 μM,4.27%
same,"late apoptosis rate (annexin V+/PI+, UR)",HepG-2 cells [2]; 20 μM,10.61%
same,"early apoptosis rate (annexin V+/PI-, LR)",HepG-2 cells [2]; 25 μM,20.05%
same,"late apoptosis rate (annexin V+/PI+, UR)",HepG-2 cells [2]; 25 μM,14.30%
same,"early apoptosis rate (annexin V+/PI-, LR)",HepG-2 cells [2]; 30 μM,23.69%
same,"late apoptosis rate (annexin V+/PI+, UR)",HepG-2 cells [2]; 30 μM,22.93%
same,"early apoptosis rate (annexin V+/PI-, LR)",HepG-2 cells [2],16.14%
same,viability at 15 µM,"HepG-2 cells [2]; Homo sapiens, HepG2, 15 μM, read-out: viable cells (annexin V-/PI-, LL)",88.7%
same,viability at 20 µM,"HepG-2 cells [2]; Homo sapiens, HepG2, 20 μM, read-out: viable cells (annexin V-/PI-, LL)",72.9%
same,viability at 25 µM,"HepG-2 cells [2]; Homo sapiens, HepG2, 25 μM, read-out: viable cells (annexin V-/PI-, LL)",64.8%
same,viability at 30 µM,"HepG-2 cells [2]; Homo sapiens, HepG2, 30 μM, read-out: viable cells (annexin V-/PI-, LL)",52%
same,expression of Bcl-2,Bcl-2,inhibition on the expression
same,melting point,,200 to 201 °C and 201 to 202 °C
same,Bax level,Bax,significant increase
same,IC50,"T-84; T84, 24 h",27.9 ± 1.96 µM
same,apoptotic cells by Hoechst 33258 staining,HepG-2 cells [3],apoptotic cells increased gradually in a dose-dependent manner
same,cytochrome c level in the cytosol,cytochrome c,gradually improved
same,IC50,"MCF-7; MCF7, 24 h",30.8 ± 1.88 µM
same,"ΔΨm reduced to, of control",HepG-2 cells [4],69.1%
same,ROS level,HepG-2 cells [5]; 15 μM,23.5%
same,ROS level,HepG-2 cells [5]; 30 μM,46.8%
same,survival rate of HepG-2,HepG-2; 35 μM,9.50%
same,IC50,"HepG-2; HepG2, 24 h",17.8 ± 1.21 µM
same,cleavage of caspase-3,caspase-3,significantly induced cleavage
"O=C1CCC[C@@H]2[C@H]3CCCN4CCC[C@@H](CN12)[C@@H]34 [Matrine, reference compound]",IC50,"T-84; T84, CCK-8, 24 h treatment, n = 3",32.8 ± 2.95 µM
same,IC50,"MCF-7; MCF7, CCK-8, 24 h treatment, n = 3",35.5 ± 2.92 µM
same,IC50,"HepG-2; HepG2, CCK-8, 24 h treatment, n = 3",30.9 ± 2.28 µM
"CC(C=O)[C@@H]1CC[C@]2(C)CC[C@]3(C(=O)O)C(CCC4[C@@]5(C)CC[C@@H](O)C(C)(C)C5CC[C@]43C)C12 (stereo partly drawn) [Compound 2, 3α-hydroxy-19β-hydrogen-29-aldehyde-27-lupanoic acid]",IC50,"T-84; T84, 24 h",27.9 ± 0.99 µM
same,IC50,"MCF-7; MCF7, 24 h",31 ± 1.83 µM
same,IC50,"HepG-2; HepG2, 24 h",18.2 ± 1.94 µM
"CC(=O)OC1CCC2(C)C(CCC3(C)C2CCC2C4C(C(C)C=O)CCC4(C)CCC23C(=O)O)C1(C)C (stereo not drawn) [Compound 3, 3α-acetyl-19α-hydrogen-29-aldehyde-27-lupanoic acid]",melting point,,200 to 201 °C
same,IC50,"T-84; T84, 24 h",40.6 ± 3.64 µM
same,IC50,"MCF-7; MCF7, 24 h",35.4 ± 1.52 µM
same,IC50,"HepG-2; HepG2, 24 h",25.3 ± 1.87 µM
